In paper PMC12926254, “Novel pyrazole carboxylate derivatives as lonazolac bioisosteres with selective COX-2 inhibition: design, synthesis and anti-inflammatory activity” (Molecular Diversity, 2025):
Marks after values point to notes of the source that are not given here.

How the values were obtained:
[1] = tested on: carrageenan-induced rat paw edema; test: Carrageenan-induced rat paw edema assay; assay type: in vivo; conditions: for % inhibition (edema) / Paw edema % inhibition / Paw edema thickness ± SEM: 50 mg/kg; for Paw edema % inhibition / Paw edema thickness ± SEM: rat; for ED50: Rattus norvegicus, dose producing 50% edema inhibition
Method: As previously described, paw thickness was evaluated at 1, 3, and 5 h following carrageenan injection at a dose of 50 mg/kg.

[2] = tested on: PGE2; test: PGE2 production in LPS-activated RAW 264.7 macrophages (ELISA); conditions: Mus musculus, RAW264.7, read-out: PGE2 IC50
[3] = tested on: gastric mucosa; test: Ulcerogenic liability (ulcer index); assay type: in vivo; conditions: 50 mg/kg orally, three successive days, rats
Method: […]. […] Rats were divided into 7 groups and fasted for 18 h before drug administration. The control group received the vehicle (2.5% Tween 80). […] After 2 h, animals were fed. Rats were given the required dose orally for three successive days. After 2 h of the last dose, rats were sacrificed; the stomach of each rat was removed then opened along the greater curvature and rinsed with saline. In order to examine the stomach, it was stretched by pins on a corkboard. The gastric mucosa was carefully inspected for the occurrence of ulcers with the aid of an illuminated magnifying lens (l0x), then ulcer index was calculated according to the method described by Cho and Ogle. Lesions were counted and measured along the greater diameter using transparent ruler. Every five hemorrhagic spots were considered equivalent to 1 mm of ulcer. The ulcer index (mm) was calculated from the sum of the total length of ulcers and hemorrhagic spots in each stomach.

[4] = tested on: iNOS; test: Inducible nitric oxide synthase (iNOS) inhibition in LPS-induced RAW 264.7 cells (ELISA); assay type: cell-based; conditions: Mus musculus, RAW264.7
Text: NO is produced from L-arginine by iNOS and is utilized in a variety of cell signaling processes. An inducible member of the NOS family, iNOS is increased during pro-inflammatory cytokine activity as a host-defense mechanism. A commercially available quantitative ELISA kit (ab253219 Mouse iNOS Simple Step ELISA® Kit) will be used to evaluate the iNOS enzyme activity of the substances in the cell lysate in accordance with the manufacturer’s instructions.

[5] = MTS cytotoxicity assay; assay type: cell-based; conditions: mouse, RAW 264.7 macrophages (heading: LPS-induced), read-out: Cytotoxicity IC50 (LPS-induced RAW 264.7 cells)
Method: Using Dulbecco’s Modified Eagle Medium (DMEM, Biowest L0060) supplemented with 10% foetal bovine serum (FBS) (Biowest, S1810) and 1% anti-biotic and anti-mycotic (Biowest, L0010-100), the RAW264.7 macrophage cell line (ATCC ® TIB-71TM) was cultivated. The cells were then incubated at 37 °C with 5% CO2 until they were confluent, which should be between 70 and 80%. After two to three days, the growth media was regularly changed. Trypsin–EDTA was then used to wash and collect the cells (Biowest, L0931-500).
The MTS (3-(4,5-dimethylthiazol-2-yl)-5-(3-carboxymethoxy-phenyl)-2-(4-sulfophenyl)-2H-tetrazolium) test (Promega, ab197010) was used to determine cell viability. In short, a 96-well plate was seeded with 5 × 10^3 cells per well, and the cells were then incubated for 24 h at 37 °C and 5% CO2. The cells were then re-incubated for 24 h at 37 °C and 5% CO2 after the medium was discarded and replaced with 180 µl of fresh growth media and 20 µl of sample (1000 ug, 250 ug, 63 ug, 16 ug, and 4 ug µg/mL). 20 µl of MTS was then added to each well, and the mixture was incubated for three hours at 37 °C with 5% CO2. […] Control cells were those that received no treatment.

[6] = target: T1, 15-LOX (Glycine max, UniProt P08170); test: In vitro 15-LOX inhibition (Lipoxygenase Inhibitor Screening assay Kit 760700, Cayman); assay type: biochemical; conditions: mean of six values ± standard deviation
T1 construct: purchased Cayman Chemical 760,700
T1 sequence (P08170 1-839): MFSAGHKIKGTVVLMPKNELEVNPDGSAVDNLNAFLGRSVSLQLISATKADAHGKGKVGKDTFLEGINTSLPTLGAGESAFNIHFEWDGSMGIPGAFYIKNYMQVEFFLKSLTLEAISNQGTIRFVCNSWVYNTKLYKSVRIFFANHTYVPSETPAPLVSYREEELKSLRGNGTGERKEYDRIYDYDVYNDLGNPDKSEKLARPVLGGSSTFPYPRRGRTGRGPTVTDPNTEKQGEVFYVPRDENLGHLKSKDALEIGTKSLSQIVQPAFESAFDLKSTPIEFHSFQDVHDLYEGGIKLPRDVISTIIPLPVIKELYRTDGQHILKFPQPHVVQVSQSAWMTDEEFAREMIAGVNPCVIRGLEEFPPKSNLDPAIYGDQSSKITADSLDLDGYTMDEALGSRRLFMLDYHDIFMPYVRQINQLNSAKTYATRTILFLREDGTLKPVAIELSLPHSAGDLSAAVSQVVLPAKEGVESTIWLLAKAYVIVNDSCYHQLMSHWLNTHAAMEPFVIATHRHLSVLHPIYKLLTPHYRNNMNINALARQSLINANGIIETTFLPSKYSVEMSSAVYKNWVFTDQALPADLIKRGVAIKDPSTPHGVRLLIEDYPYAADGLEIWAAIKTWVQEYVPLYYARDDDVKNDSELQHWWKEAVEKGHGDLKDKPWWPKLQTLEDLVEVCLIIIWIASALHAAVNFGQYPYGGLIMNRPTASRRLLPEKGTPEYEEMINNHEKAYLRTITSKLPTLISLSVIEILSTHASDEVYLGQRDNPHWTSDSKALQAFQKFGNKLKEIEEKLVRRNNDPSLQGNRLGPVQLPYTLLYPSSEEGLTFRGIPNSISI
Method: 15-LOX inhibitor screening protocol: Blank wells: 100 µl of assay buffer was added to at least two wells, Positive control wells: 90 µl of 15-LOX standard was added to 10 µl of assay buffer to at least two wells, 100% initial activity wells: 90 µl of Lipoxygenase enzyme was added to 10 µl of solvent to at least two wells, Inhibitor wells: 90 µl of Lipoxygenase enzyme was added to 10 µl of inhibitor wells to. It was incubated for five minutes at room temperature. The reaction was initiated by adding 10 µl of substrate to all the wells. 96well-plates were placed on a shaker for at least 10 min. 100 µl of chromogen was added to each well to stop the enzyme catalysis. The reaction was covered with plate cover. 96well-plates were placed on a shaker for at least 5 min. The cover was removed and absorbance was read using plate reader at absorbance 490–500 nm.

CCOC(=O)COc1ccc(C2=NN(c3ccc(S(C)(=O)=O)cc3)C(c3ccc(OC)cc3)C2)cc1 (stereo not drawn) [Compound 15c, Ethyl 2-(4-(5-(4-methoxyphenyl)-1-(4-(methylsulfonyl)phenyl)-4,5-dihydro-1H-pyrazol-3-yl)phenoxy)acetate]
% inhibition (edema) [1]: 70.02%
Paw edema % inhibition ([1]; 1 h after carrageenan): 38.3%
Paw edema thickness ± SEM ([1]; 1 h after carrageenan): 3.1 ± 0.002 mm
Paw edema % inhibition ([1]; 3 h after carrageenan): 55%
Paw edema thickness ± SEM ([1]; 3 h after carrageenan): 2.56 ± 0.0034 mm
Paw edema % inhibition ([1]; 5 h after carrageenan): 66.1%
Paw edema thickness ± SEM ([1]; 5 h after carrageenan): 2.1 ± 0.0084 mm
ED50 [1]: 24.1 mg/kg
IC50 [2]: 520 ± 29 nM
% incidence /10 [3]: 2
Average no of ulcer [3]: 0.55 ± 0.012***^b
Average severity [3]: 0.17 ± 0.004***^b
IC50 [4]: 410 ± 60 nM
IC50 at 24 h [5]: 301000 ± 10700 nM
IC50 [6]: 412 ± 16 nM

CCOC(=O)COc1ccc(C2=NN(c3ccc(S(C)(=O)=O)cc3)C(c3cc(OC)c(OC)c(OC)c3)C2)cc1 (stereo not drawn) [Compound 15d, Ethyl 2-(4-(1-(4-(methylsulfonyl)phenyl)-5-(3,4,5-trimethoxyphenyl)-4,5-dihydro-1H-pyrazol-3-yl)phenoxy)acetate]
% inhibition (edema) [1]: 80.29%
Paw edema % inhibition ([1]; 1 h after carrageenan): 61.1%
Paw edema thickness ± SEM ([1]; 1 h after carrageenan): 2.23 ± 0.0045 mm
Paw edema % inhibition ([1]; 3 h after carrageenan): 41.9%
Paw edema thickness ± SEM ([1]; 3 h after carrageenan): 2.79 ± 0.011 mm
Paw edema % inhibition ([1]; 5 h after carrageenan): 40%
Paw edema thickness ± SEM ([1]; 5 h after carrageenan): 2.90 ± 0.002 mm
ED50 [1]: 31.2 mg/kg
IC50 [2]: 330 ± 21 nM
% incidence /10 [3]: 2
Average no of ulcer [3]: 0.47 ± 0.006^b
Average severity [3]: 0.51 ± 0.013^b
IC50 [4]: 531 ± 50 nM
IC50 at 24 h [5]: 183000 ± 6520 nM
IC50 [6]: 2230 ± 87 nM

CCOC(=O)COc1ccc(C2=NN(c3ccc(S(C)(=O)=O)cc3)C(c3ccc(Br)cc3)C2)cc1 (stereo not drawn) [Compound 15 h, Ethyl 2-(4-(5-(4-bromophenyl)-1-(4-(methylsulfonyl)phenyl)-4,5-dihydro-1H-pyrazol-3-yl)phenoxy)acetate]
% inhibition (edema) [1]: 82.28%
Paw edema % inhibition ([1]; 1 h after carrageenan): 54.85%
Paw edema thickness ± SEM ([1]; 1 h after carrageenan): 2.57 ± 0.0071 mm
Paw edema % inhibition ([1]; 3 h after carrageenan): 55.9%
Paw edema thickness ± SEM ([1]; 3 h after carrageenan): 2.61 ± 0.018 mm
Paw edema % inhibition ([1]; 5 h after carrageenan): 59.3%
Paw edema thickness ± SEM ([1]; 5 h after carrageenan): 2.44 ± 0.0099 mm
ED50 [1]: 29.9 mg/kg
IC50 [2]: 280 ± 32 nM
% incidence /10 [3]: 2
Average no of ulcer [3]: 0.40 ± 0.006^b
Average severity [3]: 0.29 ± 0.009***^b
IC50 [4]: 610 ± 130 nM
IC50 at 24 h [5]: 179000 ± 6370 nM
IC50 [6]: 488 ± 19 nM
